Read-outs that look alike come from different tables or passages of the source. Bounds are passed on as bounds.

The target of one series is T1, Aurora-B (Homo sapiens, UniProt Q96GD4).
T1 construct: in some cases as full-length kinases, in some cases as truncated fragments; purchased Upstate/Millipore #14-835
In words: Cell-free kinase assay (ALPHA technology), Aurora-B. It is filed as biochemical. How it is done: The kinase reaction was stopped by adding 10 μl of the ALPHA bead mix (10 μg/ml, #6760617/PerkinElmer), pre-incubated with anti-phospho PLK antibody (100 pM, #5070, Cell Signaling), in 25 mM Tris, 200 mM NaCl, 100 mM EDTA and 0.3% BSA, and left to stand overnight. The luminiscence was detected the next morning in a Envision instrument (Perkin Elmer). […] 0% controls contained no ATP whereas the 100% controls contained no test substance. The IC50 values were determined with GraphPadPrism.

For the next series, the target named is cRaf-Mek1-Erk2 (Homo sapiens, UniProt P04049+P28482+Q02750). The conditions noted are these: read-out: IC50 cRaf-Mek-Erk; at 10 μM ATP. How it is done:
The inhibitory effect of the inventive compounds was tested on various human serine/threonine kinases and tyrosine kinases in enzymatic assays. Recombinant human kinases, for example Aurora-B, cRaf-Mek1-Erk2, Erk2, Pim-1, HIPK1, KDR, TrkA, Yes, c-Abl and others were used, in some cases as full-length kinases, in some cases as truncated fragments—but at least consisting of the functional kinase domains. The commercial kinase proteins (Proqinase, Millipore) were used as recombinant fusion proteins with GST (glutathione S-transferase) tag or His tag. Depending on the substrate type, the different kinase reactions were quantified by suitable ALPHA™ beads (PerkinElmer).
The calculation of % inhibition values per substance concentration was done by means of the following formula from the raw data determined in the Envision reader:
(§1) The controls were determined 16 fold. 0% controls contained no ATP whereas the 100% controls contained no test substance. The IC50 values were determined with GraphPadPrism.

The next series deals with T2, Erk2 (Homo sapiens, UniProt P28482).
T2 construct: in some cases as full-length kinases, in some cases as truncated fragments
Nature of the series: Cell-free kinase assay (ALPHA technology), Erk2. It is filed as biochemical. The conditions noted are these: at 10 μM ATP. Here is the method:
as §1

[1] abbreviates: at 10 μM ATP, read-out: IC50 Aurora-B.

cRaf-Mek1-Erk2, sequence (P04049 whole entry, the tested form may be a part): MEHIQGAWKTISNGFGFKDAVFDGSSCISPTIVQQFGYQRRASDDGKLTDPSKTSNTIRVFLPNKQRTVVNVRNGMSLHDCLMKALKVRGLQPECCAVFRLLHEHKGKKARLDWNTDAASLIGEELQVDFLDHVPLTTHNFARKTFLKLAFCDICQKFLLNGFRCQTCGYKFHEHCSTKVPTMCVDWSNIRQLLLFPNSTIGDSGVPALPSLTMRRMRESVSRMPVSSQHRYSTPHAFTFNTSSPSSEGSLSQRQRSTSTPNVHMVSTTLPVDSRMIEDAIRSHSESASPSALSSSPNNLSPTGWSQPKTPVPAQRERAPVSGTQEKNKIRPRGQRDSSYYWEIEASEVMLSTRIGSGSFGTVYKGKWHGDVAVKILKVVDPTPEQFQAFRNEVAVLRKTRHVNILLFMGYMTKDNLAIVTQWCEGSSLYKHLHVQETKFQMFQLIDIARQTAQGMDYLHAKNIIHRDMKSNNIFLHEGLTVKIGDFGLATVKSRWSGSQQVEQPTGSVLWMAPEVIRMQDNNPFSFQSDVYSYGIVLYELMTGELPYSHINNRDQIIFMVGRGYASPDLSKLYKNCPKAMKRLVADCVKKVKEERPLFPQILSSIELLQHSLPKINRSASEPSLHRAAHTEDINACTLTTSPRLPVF
cRaf-Mek1-Erk2, sequence (Q02750 whole entry, the tested form may be a part): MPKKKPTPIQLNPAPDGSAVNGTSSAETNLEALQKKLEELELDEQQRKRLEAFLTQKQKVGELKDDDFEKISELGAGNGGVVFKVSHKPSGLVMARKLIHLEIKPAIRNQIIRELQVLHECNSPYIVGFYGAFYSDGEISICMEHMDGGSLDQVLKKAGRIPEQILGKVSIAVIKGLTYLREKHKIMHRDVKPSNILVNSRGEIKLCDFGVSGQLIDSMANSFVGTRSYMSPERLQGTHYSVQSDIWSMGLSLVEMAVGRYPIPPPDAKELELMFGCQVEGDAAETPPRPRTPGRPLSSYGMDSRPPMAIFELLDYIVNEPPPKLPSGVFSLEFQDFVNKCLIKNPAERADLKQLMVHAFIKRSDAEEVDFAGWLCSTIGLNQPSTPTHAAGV
cRaf-Mek1-Erk2, sequence (P28482 2-360): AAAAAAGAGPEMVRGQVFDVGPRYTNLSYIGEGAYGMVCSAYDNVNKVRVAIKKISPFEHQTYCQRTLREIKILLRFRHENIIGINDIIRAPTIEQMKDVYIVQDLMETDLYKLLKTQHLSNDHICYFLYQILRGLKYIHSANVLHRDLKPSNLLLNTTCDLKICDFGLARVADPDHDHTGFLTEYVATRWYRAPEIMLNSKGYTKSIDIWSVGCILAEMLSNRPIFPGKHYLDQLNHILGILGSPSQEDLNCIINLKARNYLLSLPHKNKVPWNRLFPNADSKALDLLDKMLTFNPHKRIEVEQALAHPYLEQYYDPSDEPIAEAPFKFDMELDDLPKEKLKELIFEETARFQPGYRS
T2 sequence (P28482 whole entry, the tested form may be a part): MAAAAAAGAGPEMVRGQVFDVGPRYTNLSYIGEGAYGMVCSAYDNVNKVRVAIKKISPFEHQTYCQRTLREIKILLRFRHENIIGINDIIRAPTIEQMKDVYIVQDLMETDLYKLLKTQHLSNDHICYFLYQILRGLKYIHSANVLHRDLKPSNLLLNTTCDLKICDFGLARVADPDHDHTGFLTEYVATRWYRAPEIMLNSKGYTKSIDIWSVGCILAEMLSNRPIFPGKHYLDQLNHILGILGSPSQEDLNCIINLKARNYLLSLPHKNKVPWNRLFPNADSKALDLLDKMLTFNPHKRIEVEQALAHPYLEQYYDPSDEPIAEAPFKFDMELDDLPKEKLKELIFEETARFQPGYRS
T1 sequence (Q96GD4 whole entry, the tested form may be a part): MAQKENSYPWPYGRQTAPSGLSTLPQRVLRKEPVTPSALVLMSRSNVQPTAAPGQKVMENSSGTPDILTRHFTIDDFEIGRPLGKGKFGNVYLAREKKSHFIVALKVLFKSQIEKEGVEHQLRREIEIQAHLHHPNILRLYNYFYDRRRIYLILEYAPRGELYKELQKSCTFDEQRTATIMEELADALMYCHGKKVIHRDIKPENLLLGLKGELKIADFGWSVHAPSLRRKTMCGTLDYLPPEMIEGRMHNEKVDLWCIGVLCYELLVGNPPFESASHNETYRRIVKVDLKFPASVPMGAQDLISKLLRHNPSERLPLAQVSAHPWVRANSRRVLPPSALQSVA

`Cn1cc(-c2cnc3c(NC(=O)NCCc4ccccc4)ccnc3c2)cn1` [Compound 33, 1-[7-(1-Methyl-1H-pyrazol-4-yl)-[1,5]naphthyridin-4-yl]-3-phenethyl-urea] displayed a melting point of 222 to 223 °C. At Aurora-B (setting [1]), the IC50 turned out to be 86 nM. For the same compound, the 50% inhibitory concentration (IC50) at cRaf-Mek1-Erk2 turned out to be 16600 nM. The IC50 against Erk2 is > 100000 nM.

Compound `Cn1cc(-c2cnc3c(NC(=O)NC4CCCC4)ccnc3c2)cn1` [Compound 34, 1-Cyclopentyl-3-[7-(1-methyl-1H-pyrazol-4-yl)-[1,5]naphthyridin-4-yl]-urea] displayed a melting point of 207 to 208 °C. Further, at Aurora-B (setting [1]), the IC50 was 108 nM. On cRaf-Mek1-Erk2, the concentration for half-maximal inhibition (IC50) was found to be 676 nM. Moreover, on Erk2, inhibition was half-maximal at 4080 nM (IC50).

In turn, `O=C(Nc1ccnc2cc(-c3cn[nH]c3)cnc12)NC1CC1` [Compound 35, 1-Cyclopropyl-3-[7-(1H-pyrazol-4-yl)-[1,5]naphthyridin-4-yl]-urea] showed a melting point of 229 to 231 °C. At Aurora-B (setting [1]), the concentration for half-maximal inhibition (IC50) stood at 85 nM. In addition, the 50% inhibitory concentration (IC50) on cRaf-Mek1-Erk2 was found to be 4650 nM. Moreover, the IC50 at Erk2 was > 100000 nM.

On to `O=C(Nc1ccnc2cc(-c3ccsc3)cnc12)NC1CC1` [Compound 36, 1-Cyclopropyl-3-(7-thiophen-3-yl-[1,5]naphthyridin-4-yl)-urea], for which the melting point lay in the range of 228 to 229 °C. Further, the IC50 at Aurora-B (setting [1]) turned out to be 103 nM. In addition, the IC50 on cRaf-Mek1-Erk2 amounted to 3850 nM. Moreover, the concentration for half-maximal inhibition (IC50) against Erk2 is > 100000 nM.

`O=C(Nc1ccnc2cc(-c3ccnc(F)c3)cnc12)NC1CC1` [Compound 37, 1-Cyclopropyl-3-[7-(2-fluoro-pyridin-4-yl)-[1,5]naphthyridin-4-yl]-urea] displayed a melting point of 226 to 229 °C. Also, the 50% inhibitory concentration (IC50) on Aurora-B (setting [1]) worked out at 935 nM. Besides, on cRaf-Mek1-Erk2, the half-maximal inhibitory concentration (IC50) was determined as 10300 nM. At Erk2, the half-maximal inhibitory concentration (IC50) is > 100000 nM.

In the case of `O=C(Nc1ccnc2cc(-c3cnn(CCN4CCOCC4)c3)cnc12)NC1CC1` [Compound 38, 1-Cyclopropyl-3-{7-[1-(2-morpholin-4-yl-ethyl)-1H-pyrazol-4-yl]-[1,5]naphthyridin-4-yl}-urea], the melting point was 127 to 129 °C. The IC50 on Aurora-B (setting [1]) came out at 28 nM. Also, the concentration for half-maximal inhibition (IC50) on Aurora-B (read-out: IC50 values against Aurora-B) was < 100 nM. For the same compound, the half-inhibitory concentration (IC50) on cRaf-Mek1-Erk2 was found to be 2810 nM. The IC50 at Erk2 is > 100000 nM.

With `O=C(Nc1ccnc2cc(-c3ccccc3)cnc12)NC1CC1` [Compound 39, 1-Cyclopropyl-3-(7-phenyl-[1,5]naphthyridin-4-yl)-urea], the melting point fell in the range of 188 to 190 °C. The concentration for half-maximal inhibition (IC50) at Aurora-B (setting [1]) worked out at 889 nM. Moreover, the IC50 at cRaf-Mek1-Erk2 came out at 20300 nM. For the same compound, the half-inhibitory concentration (IC50) against Erk2 is > 100000 nM.

As to `O=C(Nc1ccnc2cc(-c3ccc4[nH]ccc4c3)cnc12)NC1CC1` [Compound 40, 1-Cyclopropyl-3-[7-(1H-indol-5-yl)-[1,5]naphthyridin-4-yl]-urea], the melting point fell in the range of 214 to 215 °C. Besides, the IC50 on Aurora-B (setting [1]) was 2120 nM. For the same compound, the half-maximal inhibitory concentration (IC50) at cRaf-Mek1-Erk2 is > 100000 nM. Besides, the IC50 on Erk2 is > 100000 nM.

One may read the IC50 as the concentration that gives 50% inhibition. The term melting point denotes the temperature of the solid-liquid transition.
